According to ChEMBL document CHEMBL5143689, “In silico, synthesis and anticancer evaluation of benzamide tryptamine derivatives as novel eEF2K inhibitors” (Bioorg Med Chem Lett, 2022):
Active and inactive are the calls of the source. The rule behind the calls is not given here.

Key:
CCRF-CEM [1] = assay: Induction of cell cycle arrest in human CCRF-CEM cells assessed as accumulation at G0/G1 phase at 8 uM incubated for 48 hrs by PI/ RNaseA staining based flow cytometry analysis (reference value: 71.3%); format: functional
[2] = biological target: T1, Eukaryotic elongation factor 2 kinase (Homo sapiens) (UniProt O00418); assay: Inhibition of eEF2K in human CCRF-CEM cells assessed as decrease in phosphorylation of MAPK at 5 uM measured up to 48 hrs by Western blot analysis; format: cell-based
T1 sequence (whole entry): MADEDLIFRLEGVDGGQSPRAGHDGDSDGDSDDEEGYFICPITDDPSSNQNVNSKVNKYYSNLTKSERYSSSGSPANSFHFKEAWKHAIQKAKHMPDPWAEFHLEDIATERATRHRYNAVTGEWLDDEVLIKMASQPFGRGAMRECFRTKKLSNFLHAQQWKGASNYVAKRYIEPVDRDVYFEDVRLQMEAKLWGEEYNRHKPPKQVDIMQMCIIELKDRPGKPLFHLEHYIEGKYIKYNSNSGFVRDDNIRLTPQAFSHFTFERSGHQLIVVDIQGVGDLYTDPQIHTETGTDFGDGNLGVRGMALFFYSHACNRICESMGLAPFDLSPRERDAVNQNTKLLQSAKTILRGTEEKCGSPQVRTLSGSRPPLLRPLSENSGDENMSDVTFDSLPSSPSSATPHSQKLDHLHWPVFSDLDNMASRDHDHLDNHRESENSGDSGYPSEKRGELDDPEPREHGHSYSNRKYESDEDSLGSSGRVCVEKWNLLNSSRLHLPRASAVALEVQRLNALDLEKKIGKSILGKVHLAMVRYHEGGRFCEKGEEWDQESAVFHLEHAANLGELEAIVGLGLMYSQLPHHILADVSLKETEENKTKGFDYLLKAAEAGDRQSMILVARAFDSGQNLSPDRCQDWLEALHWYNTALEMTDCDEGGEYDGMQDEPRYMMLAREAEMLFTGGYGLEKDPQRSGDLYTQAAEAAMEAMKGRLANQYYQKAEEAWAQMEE

CCRF-CEM [3] = assay: Induction of apoptosis in human CCRF-CEM cells assessed as early apoptotic cells up to 8 uM measured after 48 hrs by AnnexinV-FITC/PI staining based flow cytometry method; format: functional
CCRF-CEM [4] = assay: Induction of apoptosis in human CCRF-CEM cells assessed as increase in cleaved caspase-8 level at 5 uM by Western blot analysis; format: functional, cell-based; conditions: time <= 48.0 hrs, TDE = time-dependent effect
[5] = biological target: T1, Eukaryotic elongation factor 2 kinase (Homo sapiens); assay: Inhibition of eEF2K in human CCRF-CEM cells assessed as decrease in phosphorylation of eEF2 at threonine 56 residue up to 16 uM measured after 48 hrs by Western blot analysis; format: cell-based
U-937 = assay: Antiproliferative activity against human U-937 cells assessed as inhibition of cell viability measured after 48 hrs by MTT assay; format: functional, cell-based; conditions: U-937, 48 h
[6] = biological target: T1, Eukaryotic elongation factor 2 kinase (Homo sapiens); assay: Inhibition of eEF2K in human CCRF-CEM cells assessed as decrease in phosphorylation of mTOR up to 16 uM measured after 48 hrs by Western blot analysis; format: cell-based
[7] = biological target: T1, Eukaryotic elongation factor 2 kinase (Homo sapiens); assay: Inhibition of eEF2K in human CCRF-CEM cells assessed as decrease in phosphorylation of Akt at 5 uM measured up to 48 hrs by Western blot analysis; format: cell-based
[8] = biological target: T1, Eukaryotic elongation factor 2 kinase (Homo sapiens); assay: Inhibition of eEF2K in human CCRF-CEM cells assessed as decrease in MAPK protein expression level up to 16 uM measured after 48 hrs by Western blot analysis; format: cell-based
[9] = biological target: T1, Eukaryotic elongation factor 2 kinase (Homo sapiens); assay: Inhibition of eEF2K in human CCRF-CEM cells assessed as decrease in phosphorylation of eEF2 at threonine 58 residue up to 16 uM measured after 48 hrs by Western blot analysis; format: cell-based
CCRF-CEM [10] = assay: Induction of apoptosis in human CCRF-CEM cells assessed as increase in cleaved PARP level at 5 uM by Western blot analysis; format: functional, cell-based; conditions: time <= 48.0 hrs, TDE = time-dependent effect
CCRF-CEM [11] = assay: Induction of apoptosis in human CCRF-CEM cells assessed as increase in cleaved caspase-9 level at 5 uM by Western blot analysis; format: functional, cell-based; conditions: time <= 48.0 hrs, TDE = time-dependent effect
[12] = biological target: T1, Eukaryotic elongation factor 2 kinase (Homo sapiens); assay: Inhibition of eEF2K in human CCRF-CEM cells assessed as decrease in phosphorylation of MAPK up to 16 uM measured after 48 hrs by Western blot analysis; format: cell-based
[13] = biological target: T1, Eukaryotic elongation factor 2 kinase (Homo sapiens); assay: Inhibition of eEF2K in human CCRF-CEM cells assessed as decrease in phosphorylation of mTOR at 5 uM measured up to 48 hrs by Western blot analysis; format: cell-based
CCRF-CEM [14] = assay: Induction of cell cycle arrest in human CCRF-CEM cells assessed as accumulation at G0/G1 phase at 2 uM incubated for 48 hrs by PI staining based flow cytometry analysis (reference value: 71.3%); format: functional
[15] = biological target: T1, Eukaryotic elongation factor 2 kinase (Homo sapiens); assay: Inhibition of eEF2K in human CCRF-CEM cells assessed as decrease in phosphorylation of Akt up to 16 uM measured after 48 hrs by Western blot analysis; format: cell-based
CCRF-CEM [16] = assay: Induction of apoptosis in human CCRF-CEM cells assessed as increase in cleaved caspase-3 level at 5 uM by Western blot analysis; format: functional, cell-based; conditions: time <= 48.0 hrs, TDE = time-dependent effect
CCRF-CEM [17] = assay: Induction of apoptosis in human CCRF-CEM cells assessed as late apoptotic cells up to 8 uM measured after 48 hrs by AnnexinV-FITC/PI staining based flow cytometry method; format: functional
K562 = assay: Antiproliferative activity against human K562 cells assessed as inhibition of cell viability measured after 48 hrs by MTT assay; format: functional, cell-based; conditions: K562, 48 h
CCRF-CEM [18] = assay: Antiproliferative activity against human CCRF-CEM cells assessed as inhibition of cell viability measured after 48 hrs by MTT assay; format: functional, cell-based
[19] = biological target: T1, Eukaryotic elongation factor 2 kinase (Homo sapiens); assay: Inhibition of eEF2K in human CCRF-CEM cells assessed as decrease in phosphorylation of eEF2 at 5 uM measured up to 48 hrs by Western blot analysis; format: cell-based
CCRF-CEM [20] = assay: Induction of cell cycle arrest in human CCRF-CEM cells assessed as accumulation at G0/G1 phase at 4 uM incubated for 48 hrs by PI/ RNaseA staining based flow cytometry analysis (reference value: 71.3%); format: functional
[21] = biological target: T2, Eukaryotic elongation factor 2 kinase (Homo sapiens, UniProt O00418); assay: Inhibition of eEF2K (unknown origin)
T2 sequence (O00418 whole entry): T1 sequence (whole entry)

Row | SMILES | IC50 (U-937) | IC50 (K562) | IC50 (CCRF-CEM [18]) | other results
1 | O=C(CCNCCc1c[nH]c2ccc(Cl)cc12)Nc1ccccc1 | 2.12 µM | 3.54 µM | 1.63 µM | Activity (CCRF-CEM [1]): 92.3%; inhibition [2]: Active; Activity (CCRF-CEM [3]): 0.021%; Activity (CCRF-CEM [4]): Tde; inhibition [5]: Active; inhibition [6]: Active; inhibition [7]: Active; inhibition [8]: Active; inhibition [9]: Active; Activity (CCRF-CEM [10]): Tde; Activity (CCRF-CEM [11]): Tde; inhibition [12]: Active; inhibition [13]: Active; Activity (CCRF-CEM [14]): 80.8%; inhibition [15]: Active; Activity (CCRF-CEM [16]): Tde; Activity (CCRF-CEM [17]): 23.1%; inhibition [19]: Active; Activity (CCRF-CEM [20]): 89.7%
2 | COc1ccc2[nH]cc(CCNCC(C)C(=O)Nc3ccccc3)c2c1 (racemic) | > 50 µM | 37.5 µM | 9.16 µM | –
3 | COc1ccc2[nH]cc(CCNCCC(=O)Nc3ccc(C)cc3N)c2c1 | > 50 µM | > 50 µM | > 50 µM | –
4 | O=S(=O)(c1ccc(Cl)cc1)C1(S(=O)(=O)c2ccc(Cl)cc2)CC1 | – | – | – | IC50 [21]: 69 nM
5 | O=C(Nc1ccc(F)cc1F)N1CCCN(Cc2ccccc2)CC1 | – | – | – | IC50 [21]: 32 nM
6 | O=C1CC(c2ccccc2)c2cccc(N3CCCC3)c21 (stereo unspecified) | – | – | – | IC50 [21]: 230 nM
7 | Cc1ccc(NC(=O)CCNCCc2c[nH]c3ccccc23)c(N)c1 | > 50 µM | > 50 µM | > 50 µM | –
8 | CC(CNCCc1c[nH]c2ccccc12)C(=O)Nc1ccccc1 (racemic) | 11.4 µM | 7 µM | 3.9 µM | –
9 | Cc1ccc(C2=NC(C)(O)CC(C(C)C)[Se]2)cc1 (stereo unspecified) | – | – | – | IC50 [21]: 1500 nM
10 | COc1ccc2[nH]cc(CCNCC(C)C(=O)Nc3ccc(C)cc3N)c2c1 (racemic) | > 50 µM | 39.2 µM | > 50 µM | –
11 | COc1ccc2[nH]cc(CCNCCC(=O)Nc3ccc(C)cc3[N+](=O)[O-])c2c1 | > 50 µM | 48.1 µM | 14.5 µM | –
12 | Nc1cc(F)ccc1NC(=O)CCNCCc1c[nH]c2ccccc12 | > 50 µM | > 50 µM | 6.2 µM | –

More lines, main results first:

Row | IC50 (U-937) | IC50 (K562) | IC50 (CCRF-CEM [18]) | SMILES | other results
13 | > 50 µM | 33.8 µM | 4.45 µM | CC(CNCCc1c[nH]c2ccccc12)C(=O)Nc1ccccc1N (racemic) | –
14 | 11.2 µM | 16.5 µM | 4.71 µM | COc1ccc2[nH]cc(CCNCCC(=O)Nc3ccccc3N)c2c1 | –
15 | 15.2 µM | 7.83 µM | 9.79 µM | COc1ccc2[nH]cc(CCNCCC(=O)Nc3ccccc3)c2c1 | –
